According to patent publication US8598157B2, “5-alkynyl-pyridines” (Boehringer Ingelheim International GmbH, priority 2011, dated 2013):
pEC50, pIC50: −log10 of the molar value.

Legend:
[1] = system: MCF7 cells; test: alamarBlue MCF7 cell assay (antiproliferative/cytotoxicity); type: cell-based; conditions: MCF7 human breast cancer cell line
Procedure, shortened: (§1)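 Readout is alamarBlue reduction by metabolically active cells, measured fluorometrically (excitation 530-560 nm, emission 590 nm) after 8 h at 37 °C. Compounds are applied for 5-6 days from a top final concentration of 10 μM in 1:3 steps, tested in duplicate. EC50 is derived from blank-corrected signals.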

[2] = system: H460 cells; test: alamarBlue H460 cell assay (antiproliferative/cytotoxicity); type: cell-based; conditions: NCI-H460; H460 human lung carcinoma cells
Procedure, shortened: as §1

[3] = system: U87 cells; test: U87 cell assay (antiproliferative/cytotoxicity); type: cell-based; conditions: U-87MG human glioblastoma cells
Procedure, shortened: as §1

[4] = system: BT474 cells; test: alamarBlue BT474 cell assay (antiproliferative/cytotoxicity); type: cell-based; conditions: BT-474 human breast cancer cell line
Procedure, shortened: as §1

[5] = target: PI3Kalpha (Homo sapiens (Human), UniProt P42336); test: Inhibition of PI3Kalpha-induced PIP-2 phosphorylation (filter-binding assay); type: biochemical; conditions: 33P-ATP, p85alpha/His-p110alpha, read-out: IC50 PI3Kα
Procedure, shortened: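 Radiometric filter-binding assay: PI3Kα (25 ng/well) preincubated 20 min at room temperature with compound and PIP2-containing lipid vesicles plus phosphotyrosine PDGFRβ peptide. Reaction started with cold ATP (1 μM final) and [33P]-ATP and run 120 min at room temperature; filter-captured radioactivity counted, IC50 from duplicate dilution series.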

[6] = system: MB453 cells; test: alamarBlue MB453 cell assay (antiproliferative/cytotoxicity); type: cell-based; conditions: Homo sapiens; MDA MB 453 breast cancer cell line
Procedure, shortened: as §1

Sequence of PI3Kalpha (P42336 whole entry): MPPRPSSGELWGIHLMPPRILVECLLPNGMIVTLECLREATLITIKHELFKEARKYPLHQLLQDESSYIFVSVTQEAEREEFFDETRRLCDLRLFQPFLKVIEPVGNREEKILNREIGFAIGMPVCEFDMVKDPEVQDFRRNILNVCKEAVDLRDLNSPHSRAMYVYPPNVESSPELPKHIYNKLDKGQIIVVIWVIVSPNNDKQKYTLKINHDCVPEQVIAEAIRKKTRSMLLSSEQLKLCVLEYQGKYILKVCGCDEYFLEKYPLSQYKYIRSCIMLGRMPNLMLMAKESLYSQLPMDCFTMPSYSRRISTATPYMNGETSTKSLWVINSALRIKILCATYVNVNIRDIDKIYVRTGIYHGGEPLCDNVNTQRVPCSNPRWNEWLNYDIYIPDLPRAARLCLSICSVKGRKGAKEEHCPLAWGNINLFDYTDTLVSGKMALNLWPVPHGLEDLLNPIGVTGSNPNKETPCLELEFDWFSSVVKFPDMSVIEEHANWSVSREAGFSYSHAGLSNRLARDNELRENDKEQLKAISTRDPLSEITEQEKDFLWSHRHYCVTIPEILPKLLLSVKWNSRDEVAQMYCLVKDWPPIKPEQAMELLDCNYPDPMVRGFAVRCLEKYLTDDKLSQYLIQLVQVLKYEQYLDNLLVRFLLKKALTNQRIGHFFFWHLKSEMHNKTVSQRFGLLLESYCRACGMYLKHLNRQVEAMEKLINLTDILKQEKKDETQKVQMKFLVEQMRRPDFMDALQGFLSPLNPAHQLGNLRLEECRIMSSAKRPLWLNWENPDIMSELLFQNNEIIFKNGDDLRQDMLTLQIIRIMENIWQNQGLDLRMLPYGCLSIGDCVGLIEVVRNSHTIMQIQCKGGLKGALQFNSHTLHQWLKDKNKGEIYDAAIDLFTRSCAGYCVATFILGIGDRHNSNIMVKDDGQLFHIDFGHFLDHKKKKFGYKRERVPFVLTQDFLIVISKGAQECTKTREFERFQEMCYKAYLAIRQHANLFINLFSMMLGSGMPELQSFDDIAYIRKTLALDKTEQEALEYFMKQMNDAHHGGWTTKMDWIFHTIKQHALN

Row | pIC50 [5] | Compound | pEC50 [1] | pEC50 [2] | pEC50 [3] | pEC50 [4] | pEC50 [6]
1 | 8.30 | Cc1ncc(C#Cc2c(C)ncnc2N2CCOCC2)cc1NS(=O)(=O)C1CCCCC1 [Example I-39, Cyclohexanesulfonic acid [2-methyl-5-(4-methyl-6-morpholin-4-yl-pyrimidin-5-ylethynyl)-pyridin-3-yl]-amide] | 5.89 | 5.73 | 5.54 | 5.56 | 5.75
2 | 9.55 | Cc1ncc(C#Cc2c(C)ncnc2N2CCOCC2)cc1NS(=O)(=O)c1ccccc1 [Example I-40, N-[2-Methyl-5-(4-methyl-6-morpholin-4-yl-pyrimidin-5-ylethynyl)-pyridin-3-yl]-benzenesulfonamide] | 7.31 | 6.92 | 6.41 | 6.83 | 6.84
3 | 9.29 | Cc1ncc(C#Cc2c(C)ncnc2N2CCOCC2)cc1NS(=O)(=O)c1ccc(F)cc1F [Example I-41, 2,4-Difluoro-N-[2-methyl-5-(4-methyl-6-morpholin-4-yl-pyrimidin-5-ylethynyl)-pyridin-3-yl]-benzenesulfonamide] | 7.72 | 6.84 | 6.54 | 7.16 | 6.99
4 | 7.68 | Cc1ncc(C#Cc2c(C)ncnc2N2CCOCC2)cc1NS(=O)(=O)c1cnoc1C [Example I-47, 5-Methyl-isoxazole-4-sulfonic acid [2-methyl-5-(4-methyl-6-morpholin-4-yl-pyrimidin-5-ylethynyl)-pyridin-3-yl]-amide] | 5.00 | 4.60 | 4.60 | 5.00 | 4.60
5 | 9.26 | Cc1cc(S(=O)(=O)Nc2cc(C#Cc3c(C)ncnc3N3CCOCC3)cnc2C)c(C)s1 [Example I-48, 2,5-Dimethyl-thiophene-3-sulfonic acid [2-methyl-5-(4-methyl-6-morpholin-4-yl-pyrimidin-5-ylethynyl)-pyridin-3-yl]-amide] | 7.85 | 7.00 | 6.47 | 6.12 | 6.27
6 | 8.70 | Cc1ncc(C#Cc2c(C)ncnc2N2CCOCC2)cc1NS(=O)(=O)c1ccco1 [Example I-49, Furan-2-sulfonic acid [2-methyl-5-(4-methyl-6-morpholin-4-yl-pyrimidin-5-ylethynyl)-pyridin-3-yl]-amide] | 7.31 | 6.45 | 6.29 | 6.35 | 6.41
7 | 9.00 | Cc1ncc(C#Cc2c(C)ncnc2N2CCOCC2)cc1NS(=O)(=O)c1ccoc1 [Example I-50, Furan-3-sulfonic acid [2-methyl-5-(4-methyl-6-morpholin-4-yl-pyrimidin-5-ylethynyl)-pyridin-3-yl]-amide] | 7.80 | 6.89 | 6.54 | 6.48 | 6.62
8 | 9.33 | Cc1ncc(C#Cc2c(C)ncnc2N2CCOCC2)cc1NS(=O)(=O)c1ccc(Cl)s1 [Example I-52, 5-Chloro-thiophene-2-sulfonic acid [2-methyl-5-(4-methyl-6-morpholin-4-yl-pyrimidin-5-ylethynyl)-pyridin-3-yl]-amide] | 7.41 | 6.56 | 6.35 | 6.65 | 6.53
9 | 8.70 | Cc1ncc(C#Cc2c(C)ncnc2N2CCOCC2)cc1NS(=O)(=O)c1c(C)noc1C [Example I-53, 3,5-Dimethyl-isoxazole-4-sulfonic acid [2-methyl-5-(4-methyl-6-morpholin-4-yl-pyrimidin-5-ylethynyl)-pyridin-3-yl]-amide] | 6.87 | 6.10 | 5.89 | 6.05 | 6.04
